# Laboratory results: patent US20250099455A1, “TREATMENT FOR CONGESTIVE HEART FAILURE” (FibroGen, Inc., priority 2022, published 2025)
# Key:
# PHD2 = PHD2 (Homo sapiens (Human), UniProt Q9GZT9); test: HIF-PH assay (14CO2 capture), PHD2; type: biochemical
# Description: The selectivity profile for the compound of Formula I can be determined using, for example, any assay familiar and commonly accessible to those skilled in the art, e.g., the following HIF-PH assay. Ketoglutaric acid α-[1-^14C]-sodium salt, alpha-ketoglutaric acid sodium salt, and HPLC purified peptide may be obtained from commercial sources, e.g., Perkin-Elmer (Wellesley MA), Sigma-Aldrich, and SynPep Corp. (Dublin CA), respectively. Peptides for use in the assay may be fragments of HIFα as described above or as disclosed in International Publication WO 2005/118836, incorporated by reference herein. HIF-PH, e.g., PHD1 (EGLN2) or PHD2 (EGLN1), can be expressed in, e.g., insect Hi5 cells, and partially purified, e.g., through a SP ion exchange chromatography column. Enzyme activity is determined by capturing ^14CO2 using an assay described by Kivirikko and Myllyla (1982, Methods Enzymol. 82:245-304). […] The peptide-dependent percent turnover is calculated by subtracting percent turnover in the absence of peptide from percent turnover in the presence of substrate peptide. Percent inhibition and IC50 are calculated using peptide-dependent percent turnover at given inhibitor concentrations. […] IC50 of test compound for PHD1 and for PHD2 and/or PHD3 can be readily determined using the above method, and used to assess the selectivity of the compound for inhibition of PHD1.
# [1] = system: myocardial ischemia-induced heart failure (HFrEF); test: Rat model of ischemic HFrEF, Formula I and empagliflozin alone and in combination; type: in vivo
# Method: • Male Sprague Dawley rats • Ligation of left coronary artery for 30 minutes followed by reperfusion • Post-ligation recovery for 28 days • Cardiac function 28 days after ischemia-reperfusion using a Millar pressure-volume catheter inserted in the left ventricle via the carotid artery • Record pressure-volume loops over several cardiac cycles and derived cardiac function parameters A) Rat Model of Ischemic Heart Failure with Reduced Ejection Fraction (HFrEF)
# Sequence of PHD2 (Q9GZT9 whole entry, species assumed, the tested form may be a part): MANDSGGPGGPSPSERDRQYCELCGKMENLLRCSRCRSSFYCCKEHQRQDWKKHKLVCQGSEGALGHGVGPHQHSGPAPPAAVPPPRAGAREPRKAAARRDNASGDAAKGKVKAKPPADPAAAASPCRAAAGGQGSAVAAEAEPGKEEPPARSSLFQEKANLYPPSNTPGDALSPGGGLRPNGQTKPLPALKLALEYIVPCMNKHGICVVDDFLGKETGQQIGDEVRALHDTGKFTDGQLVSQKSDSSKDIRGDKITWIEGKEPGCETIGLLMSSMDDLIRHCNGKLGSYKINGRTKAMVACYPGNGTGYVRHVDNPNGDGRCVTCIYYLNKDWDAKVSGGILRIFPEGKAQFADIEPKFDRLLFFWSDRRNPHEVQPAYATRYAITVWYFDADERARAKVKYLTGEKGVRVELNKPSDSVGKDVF
structure (smiles),measurement,setting,value
"CC(C)(CC(=O)O)NC(=O)c1nc(C#N)c2cc(Oc3ccccc3)ccc2c1O [Formula I, 3-[(1-cyano-4-hydroxy-7-phenoxy-isoquinoline-3-carbonyl)-amino]-3-methyl-butyric acid]",IC50,PHD2; Table 1,20.4 µM
same,IC50,"PHD2; additional experiment, Table 1A",16.9 µM
same,improvement in ejection fraction,[1],~30%
same,improvement in end systolic volume,[1],~30%
